Laboratory results taken from PubChem BioAssay AID1919008 (Molecular Pharmacology Branch, DTP, NCI, 2023).

Test system: DMS-114 complex spheroids with HUVEC/MSC, growth % test/control
Test: Anticancer human tumor DMS-114 cell line growth inhibition [AhR];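 also: spheroids exposed to agents for 7 days before readout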;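 as to viability, T/C: 100% = DMSO vehicle control wells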
Conditions: for IC50: curve of first compound; for viability, T/C: stronger effect = lower value
Summary of the method: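 Spheroids combined tumor cells with HUVEC endothelial cells and human MSCs as stroma. AhR antagonists were paired with standard or investigational drugs, each dosed in half-log steps down from near clinical Cmax, or from 10 microM where Cmax was unknown.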

[1] = second compound 0.1 µM, first compound 0.0316 µM
[2] = second compound 0.1 µM, first compound 0.1 µM
[3] = second compound 0.1 µM, first compound 0.316 µM
[4] = second compound 0.1 µM, first compound 1 µM
[5] = second compound 0.1 µM, first compound 3.16 µM
[6] = second compound 0.1 µM, first compound 10 µM
[7] = second compound 0.316 µM, first compound 0.0316 µM
[8] = second compound 0.316 µM, first compound 0.1 µM
[9] = second compound 0.316 µM, first compound 0.316 µM
[10] = second compound 0.316 µM, first compound 1 µM
[11] = second compound 0.316 µM, first compound 3.16 µM
[12] = second compound 0.316 µM, first compound 10 µM
[13] = second compound 1 µM, first compound 0.0316 µM
[14] = second compound 1 µM, first compound 0.1 µM
[15] = second compound 1 µM, first compound 0.316 µM
[16] = second compound 1 µM, first compound 1 µM
[17] = second compound 1 µM, first compound 3.16 µM
[18] = second compound 1 µM, first compound 10 µM
[19] = second compound 3.16 µM, first compound 0.0316 µM
[20] = second compound 3.16 µM, first compound 0.1 µM
[21] = second compound 3.16 µM, first compound 0.316 µM
[22] = second compound 3.16 µM, first compound 1 µM
[23] = second compound 3.16 µM, first compound 3.16 µM
[24] = second compound 3.16 µM, first compound 10 µM
[25] = second compound 10 µM, first compound 0.0316 µM
[26] = second compound 10 µM, first compound 0.1 µM
[27] = second compound 10 µM, first compound 0.316 µM
[28] = second compound 10 µM, first compound 1 µM
[29] = second compound 10 µM, first compound 3.16 µM
[30] = second compound 10 µM, first compound 10 µM

Compound | IC50 (second compound 0.1 µM) [nM] | IC50 (second compound 0.316 µM) [nM] | IC50 (second compound 1 µM) [nM] | IC50 (second compound 3.16 µM) [nM] | IC50 (second compound 10 µM) [nM] | viability, T/C [1] [%] | viability, T/C [2] [%] | viability, T/C [3] [%] | viability, T/C [4] [%] | viability, T/C [7] [%] | viability, T/C [8] [%] | viability, T/C [9] [%] | viability, T/C [10] [%] | viability, T/C [13] [%] | viability, T/C [14] [%] | viability, T/C [15] [%] | viability, T/C [16] [%] | viability, T/C [19] [%] | viability, T/C [20] [%] | viability, T/C [21] [%] | other results
COc1cccc2c1C(=O)c1c(O)c3c(c(O)c1C2=O)CC(O)(C(=O)CO)CC3OC1CC(N)C(O)C(C)O1 (stereo not given) + Cc1cncc(-c2nc(NCCc3c[nH]c4ccccc34)c3ncn(C(C)C)c3n2)c1 | < 31.6 | < 31.6 | < 31.6 | < 31.6 | < 31.6 | 28.3 | 17.7 | 5 | 0.93 | 26.7 | 16.3 | 4.84 | 0.28 | 27.6 | 15 | 4.86 | 0.26 | 21.4 | 15.9 | 4.37 | viability, T/C [5]: 0.14%; viability, T/C [6]: 0.22%; viability, T/C [11]: 0.12%; viability, T/C [12]: 0.18%; viability, T/C [17]: 0.16%; viability, T/C [18]: 0.25%; viability, T/C [22]: 0.22%; viability, T/C [23]: 0.16%; viability, T/C [24]: 0.28%; viability, T/C [25]: 8.93%; viability, T/C [26]: 5.47%; viability, T/C [27]: 3.18%; viability, T/C [28]: 0.37%; viability, T/C [29]: 0.16%; viability, T/C [30]: 0.24%
Nc1ccn(C2OC(CO)C(O)C2(F)F)c(=O)n1 (stereo not given) + Cc1cncc(-c2nc(NCCc3c[nH]c4ccccc34)c3ncn(C(C)C)c3n2)c1 | < 31.6 | < 31.6 | < 31.6 | < 31.6 | < 31.6 | 8.56 | 9.8 | 9.67 | 7.95 | 8.17 | 8.73 | 9.32 | 9.26 | 9.4 | 10.1 | 8.34 | 9.34 | 8.74 | 10.6 | 11.1 | viability, T/C [5]: 10.1%; viability, T/C [6]: 8.44%; viability, T/C [11]: 8.71%; viability, T/C [12]: 9.3%; viability, T/C [17]: 8.86%; viability, T/C [18]: 9.03%; viability, T/C [22]: 8.92%; viability, T/C [23]: 9.63%; viability, T/C [24]: 8.89%; viability, T/C [25]: 9.18%; viability, T/C [26]: 7.73%; viability, T/C [27]: 8.82%; viability, T/C [28]: 7.58%; viability, T/C [29]: 8.49%; viability, T/C [30]: 9.08%
Nc1ncn(C2CC(O)C(CO)O2)c(=O)n1 (stereo not given) + Cc1cncc(-c2nc(NCCc3c[nH]c4ccccc34)c3ncn(C(C)C)c3n2)c1 | > 1000 | > 1000 | > 1000 | > 1000 | < 3.16 | 99.5 | 101 | 77 | 54.8 | 90.6 | 88 | 74.3 | 52.3 | 81.5 | 94.3 | 86.4 | 62 | 86.5 | 81.7 | 85.2 | viability, T/C (second compound 0.1 µM, first compound 0.00316 µM): 111%; viability, T/C (second compound 0.1 µM, first compound 0.01 µM): 88.5%; viability, T/C (second compound 0.316 µM, first compound 0.00316 µM): 90.4%; viability, T/C (second compound 0.316 µM, first compound 0.01 µM): 93.1%; viability, T/C (second compound 1 µM, first compound 0.00316 µM): 97.8%; viability, T/C (second compound 1 µM, first compound 0.01 µM): 91.7%; viability, T/C (second compound 3.16 µM, first compound 0.00316 µM): 82.9%; viability, T/C (second compound 3.16 µM, first compound 0.01 µM): 86.5%; viability, T/C [22]: 68.8%; viability, T/C (second compound 10 µM, first compound 0.00316 µM): 31.6%; viability, T/C (second compound 10 µM, first compound 0.01 µM): 36.9%; viability, T/C [25]: 44.8%; viability, T/C [26]: 45.5%; viability, T/C [27]: 35.6%; viability, T/C [28]: 37.1%
